Data reported in patent US5998437A, “Benzimidazole derivatives” (Otsuka Pharmaceutical Co., Ltd., priority 1995, dated 1999).

Columns and labels:
[1] = target: T1, cGMP-PDE (Homo sapiens, UniProt O76074); assay: Activity for inhibiting cGMP PDE (PDE partially purified from human platelets, FI fraction); format: biochemical; conditions: 0.4 μM of [3H]-cGMP
T1 construct: Separation and partial purification of PDE (phosphodiesterase) from human platelets; from tissue; host or cells: human platelets (supernatant, DEAE-cellulose FI fraction)
Description: (1) Measurement of the Activity for Inhibiting cGMP PDE
Separation and partial purification of PDE (phosphodiesterase) from human platelets, and measurement of the activity for inhibiting cGMP PDE were conducted by the method of Hidaka, et al. [Biochimica et Biophysica Acta, Vol. 429, (1976), pp. 485-497]. The platelets obtained from human healthy adult were washed, and suspended in TRIS-buffer solution, then said suspension was treated by centrifugal separation, the supernatant was subjected to a DEAE-cellulose treatment and fractionated into FI to FIII fractions by a method of concentration gradient of sodium acetate. Thus obtained FI fraction was used as the sample of cGMP-PDE. The activity for inhibiting cGMP-PDE was measured by using 0.4 μM of [^3 H]-cGMP.

[2] = test system: TPA induced inflammation; assay: Activity for inhibiting TPA induced inflammation (ear pinna); format: in vivo, ICR strain female mouse; conditions: 1% solution, 20 μl on ear pinna 30 minutes before TPA; 4 hours after TPA coating
Description: (6) Determination of the Activity for Inhibiting TPA Induced Inflammation
Test was conducted by the modified method of Carlson, et al. [Agents Actions, Vol. 26, (1989), page 319]. Thus, to the ear pinna of ICR strain female mouse, 20 μl of acetone solution of 12-O-tetradecanoylphorbol-13-acetate (TPA) in the concentration of 200 μg/ml was coated to induce inflammation. The thickness of ear pinna of 4 hours after the TPA coating was measured, and difference of the last value was defined as the ear pinna inflammation. Test compound was dissolved in acetone-methanol (4:1 by v/v) to make the concentration of 1%. 20 μl of test compound solution was coated on the ear pinna 30 minutes before the TPA coating. By using compound of Example 3 as test compound, the inflammation was inhibited at the rate of 66%.

[3] = test system: human fibroblast; assay: Activity for inhibiting proliferation of the human fibroblast ([3H]-thymidine uptake); format: cell-based
Description: Test was conducted by the modified method of N. Morisaki [Atherosclerosis, Vol. 71, (1988), pp. 165-171]. The rat A10 cells (purchased from Dainippon Pharmaceutical Co., Ltd.) were inoculated on a 24 wells immunoplate at a density of 10,000 cells/well, and were cultured in 10% FBS (fetal bovine serum) for 2 days, and in order to introduce the cells into the resting stage, the cells were further cultured in a serum-free medium for 2 days. After that, 1% FBS was added thereto for stimulating the proliferation, of the cells and at the same time, a test compound and 0.5 μCi/well of [^3 H]-thymidine were added. As to the index of synthesized amount of DNA, the quantity of [^3 H]-thymidine being uptaken by the cells was measured at the time of 24 hours after the final cultivation was started.
(3) Measurement of the Activity for Inhibiting Proliferation of the Human Fibroblast
Similar to the activity for inhibiting proliferation of rat A10 cells as mentioned above, the activity for inhibiting proliferation of the human fibroblast (purchased from Dainippon Pharmaceutical Co., Ltd.) was determined by measuring the uptake amount of [^3 H]-thymidine.

[4] = test system: T cells; assay: Activity for inhibiting proliferation of the T cells (mouse spleen cells, Concanavaline A); format: cell-based, Balb/c strain male mouse; conditions: T-cell, 2 days, then [3H] thymidine overnight
Description: (4) Measurement of the Activity for Inhibiting Proliferation of the T Cells
Test was conducted by the method as disclosed in "Current Protocol in Immunology" [Edited by Coligan, et al., (1991)] Chapter 3, page 12 (Published from Willy Interscience, Inc.). After sacrificed a Balb/c strain male mouse, the spleen was enucleated and a suspension of the spleen cells in RPMI-1640 culture medium was prepared. Said suspension was filtered through a nylon fiber mesh, and subjected to a centrifugal separation (1,200 rpm, for 5 minutes), there were added on pellet 5 ml of 0.15 M ammonium chloride, 10 mM potassium hydrogencarbonate, and 0.1 mM disodium salt of EDTA (pH 7.2) per one spleen so as to suspend the cells, and the suspension was incubated at 37° C. for 5 minutes. […] After counted the number of cells by using a hemacytometer, a suspension containing cell density of 10^6 /ml was prepared by diluting with RPMI-10 culture medium. […]
20 μCi/ml of [methyl-^3 H] thymidine was added in an amount of 10 μl/well, after further incubated overnight, by using a cell harvester the cells were recovered on the filter of the harvester. The filter was cut out from the cell harvester and put in a vial, then 5 ml of a scintillation cocktail (ACS-II) was added, and measured by using a liquid scintillation counter. […]

[5] = test system: chronic contactive dermatitis; assay: Activity for inhibiting chronic contactive dermatitis (TNCB, ear pinna); format: in vivo, Balb/c strain male mouse; conditions: for Thickness of ear pinna (×10 μm): control 137.1 ± 6.2, 8 animals; for Inhibition rate (%): ear pinna thickness
Description: (5) Determination of the Activity for Inhibiting Chronic Contactive Dermatitis
The activity for inhibiting chronic contactive dermatitis [J. Dermatol. Sci., Vol. 8, (1994), page 54] which is analogous to atopic dermatitis being reported by Kitagaki, et al. was discussed by using the method as follows. The right-side ear pinna of Balb/c strain male mouse was subjected to antigen sensitization by coating with 20 μl of acetone solution of 1% trinitrochlorobenzene (TNCB). 7 Days after the antigen sensitization, the same right-side pinna was subjected to antigen induction by coating with 20 μl of 1% TNCB acetone solution. The treatment of antigen induction was repeated in every 2 days so as to induced chronic contactive dermatitis. In this test, increase of thickness of the right-side ear pinna was induced by passing into a chronic state of the contactive dermatitis. The test compound was dissolved in acetone-methanol (4:1 by v/v) and 20 μl of this solution was administered by coating on the right-side of ear pinna once a day from 24th day after the antigen induction for 2 weeks. As to the control, the only the solvent was similarly administered. The antigen induction by the test compound during administration period was conducted at 30 minutes before the administration. The thickness of the ear pinna of 14th day after the administration was measured by a dial thickness gauge.

[6] = 0.1% coated once a day for 2 weeks

O=C(Nc1ccc2c(ccn2CCCn2ccnc2)c1)c1nc2ccc(Cl)cc2n1Cc1ccccc1 [Example 3, 1-benzyl-6-chloro-2-{1-[3-(imidazol-1-yl)propyl]indol-5-ylamino-carbonyl}benzimidazole]
IC50 [1]: 0.01 µM
Inhibition rate of TPA induced inflammation [2]: 66%
IC50 [3]: 40 nM
IC50 [4]: 2000 nM
Thickness of ear pinna (×10 μm) [5, 6]: 120.4 ± 5.3 ×10 μm
Thickness of ear pinna (×10 μm) ([5]; 0.3% coated once a day for 2 weeks): 105.0 ± 7.2 ×10 μm
Thickness of ear pinna (×10 μm) ([5]; 1.0% coated once a day for 2 weeks): 64.5 ± 1.6 ×10 μm
Inhibition rate (%) [5, 6]: 12%
Inhibition rate (%) ([5]; 0.3% coated once a day for 2 weeks, * p < 0.01 vs control, Dunnett's test): 23%
Inhibition rate (%) ([5]; 1.0% coated once a day for 2 weeks, * p < 0.01 vs control, Dunnett's test): 53%
